# Assay results as given in paper PMC4977651, “Molecular features of biguanides required for targeting of mitochondrial respiratory complex I and activation of AMP-kinase” (BMC Biology, 2016).
# Like-named read-outs stand apart in the source and are kept apart here.
# Legend:
# HepG2 cells = assay: Rotenone-sensitive oxygen consumption rate in intact HepG2 cells; type: cell-based, human; details: for rotenone sensitive OCR after 6 hours of biguanide exposure, % control, average / rotenone sensitive OCR after 6 hours of biguanide exposure, average: HEPG2 cells, biguanide at IC50/10; for rotenone sensitive OCR after 6 hours of biguanide exposure, average: OCR normalized to OCR immediately prior to biguanide addition
# Procedure: 143B (CRL-8303 from ATCC), HepG2 (85011430 from The Health Protection Agency), and MDBK (CCL-22 from ATCC) cells were grown on Dulbecco’s modified Eagle’s medium (DMEM) supplemented with 10 % fetal bovine serum (FBS, Thermo Fisher Scientific) at 37 °C in 5 % CO2. All cells were confirmed as negative for mycoplasma.
# Oxygen consumption rates (OCRs) were measured using a Seahorse XF96 extracellular flux analyzer at 37 °C. For intact cell measurements, 1.4 × 10^4 143B, HepG2, or MDBK cells were plated (per well) in DMEM containing 10 % FBS into Seahorse Bioscience Inc. XF96 plates and incubated for ~12 h at 37 °C in 5 % CO2. Then, the medium was exchanged for assay buffer containing DMEM, 4.5 g L^−1 glucose, 1 mM pyruvate, 32 mM NaCl, 2 mM GlutaMAX, 15 mg L^−1 phenol red, and 20 mM HEPES (pH 7.4 at 37 °C) and the cells placed in a CO2-free incubator at 37 °C for 30 min. Basal oxygen consumption rates were established before the addition of biguanides at one-tenth of their IC50 (IC50/10), and followed for ~ 6 h before the addition of rotenone (2 μM).
# Rotenone-sensitive OCRs were calculated by subtracting the rotenone-insensitive rates (determined at the end of the experiment). OCRs were normalized by dividing by the OCR recorded immediately prior to the addition of biguanide. For rate of uptake calculations, the OCRs at time points after biguanide addition were divided by the OCRs at the same time points in control experiments. Data from wells with failed port injections were excluded from the analyses. The respiratory control ratio (RCR) values (state III versus state IV respiration) were ~11 and ~6 for permeabilized MDBK and 143B cells, respectively.
# [1] = system: acetyl-coA carboxylase (phospho-Ser79); assay: AMPK activation, western blot of phospho-acetyl-coA carboxylase in MDBK cells; type: cell-based, Bos taurus; details: for ACC, average normalised to control: Averages of experiments 1-3, 18 hours; for p-ACC: band intensity
# Procedure: MDBK cells were seeded at 1 × 10^6 cells per 6 cm dish in DMEM containing 10 % FBS. […] After 18 h cells were harvested by a rapid lysis procedure: cells were rinsed with PBS, then lysed using ice-cold buffer containing 50 mM HEPES, 1 mM EDTA, 10 % glycerol, 50 mM NaF, 5 mM sodium pyrophosphate, 1 % Triton-X100, 1 mM dithiothreitol (DTT), and a protease inhibitor cocktail (Roche). The cell lysate was centrifuged at 14,000 × g for 20 min at 4 °C and the protein concentration of the supernatant determined by bicinchoninic acid assay. The lysate was analyzed using Novex 3–12 % bis-Tris gels run in 3-(N-morpholino)propanesulfonic acid (MOPS) buffer (20 μg of protein per lane) followed by transfer to low fluorescence polyvinylidene fluoride membranes by wet transfer. Primary rabbit antibodies for AMPK-β (57C12), AMPK-α (phospho-Thr172) (40H9), and acetyl-coA carboxylase (phospho-Ser79) (Cell Signaling Technology) were incubated overnight with the membrane (1:1000 dilution) in Odyssey blocking buffer at 4 °C. A fluorescent secondary antibody was used (IRDYE800CW from LI-COR Biosciences, 1:20,000 dilution) with a LI-COR Odyssey imaging system.
# [2] = target: bovine heart mitochondrial membranes (complex I) (Bos taurus, UniProt P03887+P03898+P17694+P42026); assay: NADH:O2 oxidoreduction by bovine heart mitochondrial membranes (complexes I-III-IV); type: biochemical
# Procedure: Complex I and mitochondrial membranes were prepared from Bos taurus (bovine) heart. Intact mitochondria were isolated from rat liver and mouse heart and liver. Membranes were prepared from mouse heart mitochondria by 5 s bursts of sonication at 4 °C and collected by centrifugation (75,000 × g, 1 h).
# Assays were performed at 32 °C in a SpectraMax 96-well plate reader. NADH:decylubiquinone oxidoreduction by complex I at 0.5 μg mL^−1 was measured in 20 mM Tris-HCl (pH 7.2), 0.15 % soy bean asolectin (Avanti Polar Lipids), and 0.15 % 3-((3-cholamidopropyl)dimethylammonium)-1-propanesulfonate (CHAPS, Merck Chemicals Ltd), with 200 μM decylubiquinone and 200 μM NADH, and monitored using ε340–380(NADH) = 4.81 mM^−1 cm^−1 [23]. Catalysis was initiated by addition of NADH and maximal rates determined by linear regression. NADH:O2 oxidoreduction by membranes was measured similarly but using 5 μg mL^−1 membranes in 10 mM Tris-HCl (pH 7.4) and 250 mM sucrose using 200 μM NADH and supplemented with 0.15 mM horse heart cytochrome c (Sigma-Aldrich Ltd.). Succinate:O2 oxidoreduction was measured using 40 μg mL^−1 membranes in 5 mM succinate in 10 mM Tris-HCl (pH 7.4) as described previously. Control experiments included NaCl (to match the ionic strength) or DMSO, as appropriate.
# Experimental values are reported as mean averages ± standard deviation (SD) of technical replicates for large sample sizes and mean averages ± standard error of the mean (SEM) of technical replicates for small sample sizes. Data were analyzed by the unpaired two-tailed Student’s t test. IC50 values were determined using the standard dose-effect relationship (activity (%) = 100 × IC50 / (IC50 + [inhibitor]^m) with the Hill Slope (m) set to unity for purified complex I) and are reported with 95 % confidence intervals.
# [3] = bovine heart mitochondrial membranes; inhibitor 0.025 mM; read-out: average % (rate, % of no-inhibitor control)
# [4] = bovine heart mitochondrial membranes; inhibitor 0.05 mM; read-out: average % (rate, % of no-inhibitor control)
# [5] = bovine heart mitochondrial membranes; inhibitor 0.25 mM; read-out: average % (rate, % of no-inhibitor control)
# [6] = bovine heart mitochondrial membranes; inhibitor 0.50 mM; read-out: average % (rate, % of no-inhibitor control)
# [7] = log of concentration in mM; sample given as Bovine heart mitochondrial membranes; Prism variable slope fit, Bottom 0, Top 100
# [8] = sample given as Bovine heart mitochondrial membranes; Prism variable slope fit, Bottom 0, Top 100
# bovine heart mitochondrial membranes (complex I), sequence (P42026 38-216): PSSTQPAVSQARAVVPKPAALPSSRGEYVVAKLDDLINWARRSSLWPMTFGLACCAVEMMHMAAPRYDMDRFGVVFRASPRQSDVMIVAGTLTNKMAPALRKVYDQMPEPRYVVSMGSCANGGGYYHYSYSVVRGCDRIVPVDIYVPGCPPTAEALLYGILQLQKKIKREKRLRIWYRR
# bovine heart mitochondrial membranes (complex I), sequence (P17694 34-463): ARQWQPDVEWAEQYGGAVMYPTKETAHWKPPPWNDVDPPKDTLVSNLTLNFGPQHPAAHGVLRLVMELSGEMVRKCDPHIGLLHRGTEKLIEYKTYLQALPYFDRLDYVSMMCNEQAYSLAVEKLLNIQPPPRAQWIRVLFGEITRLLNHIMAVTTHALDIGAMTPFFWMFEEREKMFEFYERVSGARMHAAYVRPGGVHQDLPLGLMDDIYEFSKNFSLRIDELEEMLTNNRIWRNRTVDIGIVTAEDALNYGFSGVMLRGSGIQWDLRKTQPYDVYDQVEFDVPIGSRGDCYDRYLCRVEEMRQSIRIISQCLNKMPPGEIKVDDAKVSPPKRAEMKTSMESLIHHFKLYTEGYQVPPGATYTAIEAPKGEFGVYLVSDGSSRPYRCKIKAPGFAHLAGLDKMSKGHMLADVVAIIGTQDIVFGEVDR
# bovine heart mitochondrial membranes (complex I), sequence (P03887 whole entry): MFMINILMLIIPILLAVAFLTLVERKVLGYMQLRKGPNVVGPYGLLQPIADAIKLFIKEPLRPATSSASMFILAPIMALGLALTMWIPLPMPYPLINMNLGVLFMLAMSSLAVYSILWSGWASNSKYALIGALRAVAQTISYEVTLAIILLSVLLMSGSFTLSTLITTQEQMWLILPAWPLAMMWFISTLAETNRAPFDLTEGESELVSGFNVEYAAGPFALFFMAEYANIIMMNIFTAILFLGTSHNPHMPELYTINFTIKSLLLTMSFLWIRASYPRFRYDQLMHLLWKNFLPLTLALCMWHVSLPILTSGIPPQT
# bovine heart mitochondrial membranes (complex I), sequence (P03898 whole entry): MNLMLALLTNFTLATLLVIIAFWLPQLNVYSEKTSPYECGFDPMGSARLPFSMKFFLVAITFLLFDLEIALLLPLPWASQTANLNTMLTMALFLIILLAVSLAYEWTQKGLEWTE
structure (smiles),measurement,setting,value
"CC(C)N=C(N)N=C(N)NC(C)C [compound 5, N-(propan-2-yl)-1-3-(propan-2-yl)carbamimidamidomethanimidamide]","rotenone sensitive OCR after 6 hours of biguanide exposure, % control, average",HepG2 cells,88.37 % control
same,"rotenone sensitive OCR after 6 hours of biguanide exposure, average",HepG2 cells,91.14
same,inhibition of rotenone-sensitive respiration (in words),"HepG2 cells; intact HepG2 cells, biguanide at IC50/10, monitored for 6 h",do not
same,"ACC, average normalised to control",[1],1.36
same,p-ACC / AMPK beta,"[1]; Experiment 1, 18 hours",0.27
same,p-ACC / AMPK beta normalised to control,"[1]; Experiment 1, 18 hours",1.41
same,p-ACC,"[1]; Experiment 1, 18 hours",131
same,p-ACC / AMPK beta,"[1]; Experiment 2, 18 hours",0.23
same,p-ACC / AMPK beta normalised to control,"[1]; Experiment 2, 18 hours",1.44
same,p-ACC,"[1]; Experiment 2, 18 hours",70.3
same,p-ACC / AMPK beta,"[1]; Experiment 3, 18 hours",0.36
same,p-ACC / AMPK beta normalised to control,"[1]; Experiment 3, 18 hours",1.22
same,p-ACC,"[1]; Experiment 3, 18 hours",64.6
same,remaining activity at 25 µM,[2]; [3],88.2%
same,remaining activity at 50 µM,[2]; [4],80.7%
same,remaining activity at 120 µM,"[2]; bovine heart mitochondrial membranes; inhibitor 0.12 mM; read-out: average % (rate, % of no-inhibitor control)",67.1%
same,remaining activity at 250 µM,[2]; [5],53.5%
same,remaining activity at 500 µM,[2]; [6],42.4%
same,remaining activity at 1000 µM,"[2]; bovine heart mitochondrial membranes; inhibitor 1.00 mM; read-out: average % (rate, % of no-inhibitor control)",30.7%
same,remaining activity at 2000 µM,"[2]; bovine heart mitochondrial membranes; inhibitor 2.00 mM; read-out: average % (rate, % of no-inhibitor control)",19.2%
same,LogIC50 (best fit value),[2]; [7],-0.4916
same,IC50,"[2]; sample given as Bovine heart mitochondrial membranes; Prism log(inhibitor) vs. response variable slope fit (four parameters), Bottom 0, Top 100; read-out: IC50 (best fit value)",322 µM
same,HillSlope (best fit value),[2]; [8],-0.7631
"[H]/N=C(\N/C(=N/[H])Nc1ccc(Cl)cc1)NC(C)C [proguanil, reference compound]","rotenone sensitive OCR after 6 hours of biguanide exposure, % control, average",HepG2 cells,93.06 % control
same,"rotenone sensitive OCR after 6 hours of biguanide exposure, average",HepG2 cells,95.98
same,"ACC, average normalised to control",[1],1.76
same,p-ACC / AMPK beta,"[1]; Experiment 1, 18 hours",0.34
same,p-ACC / AMPK beta normalised to control,"[1]; Experiment 1, 18 hours",1.73
same,p-ACC,"[1]; Experiment 1, 18 hours",161
same,p-ACC / AMPK beta,"[1]; Experiment 2, 18 hours",0.32
same,p-ACC / AMPK beta normalised to control,"[1]; Experiment 2, 18 hours",1.97
same,p-ACC,"[1]; Experiment 2, 18 hours",112
same,p-ACC / AMPK beta,"[1]; Experiment 3, 18 hours",0.47
same,p-ACC / AMPK beta normalised to control,"[1]; Experiment 3, 18 hours",1.56
same,p-ACC,"[1]; Experiment 3, 18 hours",91.3
same,remaining activity at 5 µM,"[2]; bovine heart mitochondrial membranes; inhibitor 0.005 mM; read-out: average % (rate, % of no-inhibitor control)",76.5%
same,remaining activity at 12.5 µM,"[2]; bovine heart mitochondrial membranes; inhibitor 0.0125 mM; read-out: average % (rate, % of no-inhibitor control)",56.2%
same,remaining activity at 25 µM,[2]; [3],41.4%
same,remaining activity at 50 µM,[2]; [4],24.9%
same,remaining activity at 100 µM,"[2]; bovine heart mitochondrial membranes; inhibitor 0.10 mM; read-out: average % (rate, % of no-inhibitor control)",7.77%
same,remaining activity at 250 µM,[2]; [5],6.98%
same,remaining activity at 500 µM,[2]; [6],7.97%
same,LogIC50 (best fit value),[2]; [7],-1.788
same,IC50,"[2]; read-out: IC50 (best fit value); sample given as Bovine heart mitochondrial membranes; Prism log(inhibitor) vs. response variable slope fit (four parameters), Bottom 0, Top 100",16.3 µM
same,HillSlope (best fit value),[2]; [8],-1.025
